Our source for the relative viability values is the supplement of paper PMC10307832.

Holding throughout (experiment): relative viability (nuclei count vs DMSO), 5 days (fraction); higher = more cells survive
Compound in test [1]: COc1cc(N2CCC(N3CCN(C)CC3)CC2)ccc1Nc1ncc(Cl)c(Nc2ccccc2S(=O)(=O)C(C)C)n1 [NVP-TAE684] + CC(=O)c1c(C)c2cnc(Nc3ccc(N4CCNCC4)cn3)nc2n(C2CCCC2)c1=O [Palbociclib] (partner 0.5 µM)
The procedure, abridged:
(§1)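 Lung cancer cell lines in 1536-well plates were dosed by pin tool the day after seeding, either with one drug alone or with a fixed anchor-drug dose plus five library-drug doses (not always all listed) in √10 steps. After 5 days, cells were fixed and their nuclei stained in one step (final 0.05% Triton X-100, 1% formaldehyde, 1 ug/ml Hoechst), then counted on 4× images. Relative viability is the nuclei count in treated wells divided by that in vehicle wells. Values are medians of duplicate plates.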

Compound in test [2]: COc1cc2/c(=N/c3ccc(Br)cc3F)nc[nH]c2cc1OCC1CCN(C)CC1 [Vandetanib] + COc1cccc2cc(-c3nc([C@H]4CC[C@H](C(=O)O)CC4)n4ncnc(N)c34)[nH]c12 [OSI-027] (partner 0.5 µM)
Put shortly:
as §1

Compound in test [3]: COc1cc(N2CCC(N3CCN(C)CC3)CC2)ccc1Nc1ncc(Cl)c(Nc2ccccc2S(=O)(=O)C(C)C)n1 [NVP-TAE684] + CC(C)C[C@H](NC(=O)[C@H](Cc1ccccc1)NC(=O)c1cnccn1)B(O)O [Bortezomib] (partner 0.002 µM)
Put shortly:
as §1

Compound in test [4]: COc1cc(N2CCC(N3CCN(C)CC3)CC2)ccc1Nc1ncc(Cl)c(Nc2ccccc2S(=O)(=O)C(C)C)n1 [NVP-TAE684] + C[C@@H](Oc1cc(-c2cnn(C3CCNCC3)c2)cnc1N)c1c(Cl)ccc(F)c1Cl [Crizotinib] (partner 1 µM)
Put shortly: as §1

Compound in test [5]: COc1cc2/c(=N/c3ccc(Br)cc3F)nc[nH]c2cc1OCC1CCN(C)CC1 [Vandetanib] + CC(C)C[C@H](NC(=O)[C@H](Cc1ccccc1)NC(=O)c1cnccn1)B(O)O [Bortezomib] (partner 0.002 µM)
Put shortly:
as §1

On to NCI-H522, for which the relative viability in test [1] (first compound 0.2 µM) came out at 0.973; in test [1] (first compound 0.6325 µM), 0.99; in test [1] (first compound 2 µM) it was 0.893; in test [2] (first compound 0.02 µM), 0.77; in test [2] (first compound 0.06325 µM) it was 0.727; in test [2] (first compound 0.2 µM) it was 0.772. In addition, the relative viability in test [2] (first compound 0.6325 µM) came to 0.674; in test [2] (first compound 2 µM), 0.61.

Turning to RERF-LC-KJ, the relative viability was determined as 1.14 in test [1] (first compound 0.2 µM); 1.11 in test [1] (first compound 0.6325 µM); 0.907 in test [1] (first compound 2 µM); 0.952 in test [3] (first compound 0.2 µM); 1.25 in test [3] (first compound 0.6325 µM); 0.916 in test [3] (first compound 2 µM). The relative viability worked out at 0.948 in test [4] (first compound 0.2 µM); 0.781 in test [4] (first compound 0.6325 µM); 0.792 in test [4] (first compound 2 µM); 1.05 in test [5] (first compound 0.02 µM); 0.961 in test [5] (first compound 0.06325 µM); 1.05 in test [5] (first compound 0.2 µM). Further, the relative viability in test [5] (first compound 0.6325 µM) worked out at 0.951; in test [5] (first compound 2 µM), 0.958; in test [2] (first compound 0.02 µM) it was 0.627; in test [2] (first compound 0.06325 µM) it was 0.537; in test [2] (first compound 0.2 µM), 0.545; in test [2] (first compound 0.6325 µM), 0.471. Further, the relative viability in test [2] (first compound 2 µM) was 0.412.

As to A-427, the relative viability in test [1] (first compound 0.2 µM) was found to be 0.539; in test [1] (first compound 0.6325 µM), 0.527; in test [1] (first compound 2 µM), 0.431; in test [3] (first compound 0.2 µM) it was 1.1; in test [3] (first compound 2 µM), 0.78; in test [4] (first compound 2 µM), 0.512. For the same cell line, the relative viability in test [5] (first compound 0.02 µM) amounted to 0.887; in test [5] (first compound 0.06325 µM), 0.99; in test [5] (first compound 0.2 µM) it was 1.04; in test [5] (first compound 0.6325 µM) it was 1.02; in test [5] (first compound 2 µM), 0.961; in test [2] (first compound 0.02 µM) it was 0.542. Moreover, the relative viability in test [2] (first compound 0.06325 µM) came out at 0.486; in test [2] (first compound 0.2 µM) it was 0.53; in test [2] (first compound 0.6325 µM) it was 0.481; in test [2] (first compound 2 µM), 0.432.

Consider EKVX, for which the relative viability in test [1] (first compound 0.2 µM) came to 0.358; in test [1] (first compound 0.6325 µM), 0.351; in test [1] (first compound 2 µM), 0.34; in test [3] (first compound 0.2 µM) it was 0.98; in test [3] (first compound 0.6325 µM) it was 0.926; in test [3] (first compound 2 µM), 0.587. Also, the relative viability amounted to 0.775 in test [4] (first compound 0.2 µM); 0.859 in test [4] (first compound 0.6325 µM); 0.582 in test [4] (first compound 2 µM); 1.09 in test [5] (first compound 0.02 µM); 0.998 in test [5] (first compound 0.06325 µM); 1.03 in test [5] (first compound 0.2 µM). In addition, the relative viability amounted to 0.796 in test [5] (first compound 0.6325 µM); 0.666 in test [5] (first compound 2 µM); 0.741 in test [2] (first compound 0.02 µM); 0.693 in test [2] (first compound 0.06325 µM); 0.723 in test [2] (first compound 0.2 µM); 0.67 in test [2] (first compound 0.6325 µM). In addition, the relative viability in test [2] (first compound 2 µM) was 0.563.

On to NCI-H460, for which the relative viability in test [1] (first compound 0.2 µM) came out at 0.183; in test [1] (first compound 0.6325 µM), 0.168; in test [1] (first compound 2 µM) it was 0.098; in test [3] (first compound 0.2 µM), 1.77; in test [3] (first compound 0.6325 µM) it was 1.2; in test [3] (first compound 2 µM) it was 0.593. Moreover, the relative viability in test [4] (first compound 0.2 µM) came to 1.16; in test [4] (first compound 0.6325 µM) it was 0.831; in test [4] (first compound 2 µM), 0.247; in test [5] (first compound 0.02 µM) it was 1.02; in test [5] (first compound 0.06325 µM) it was 0.992; in test [5] (first compound 0.2 µM) it was 1.1. Further, the relative viability is 1.09 in test [5] (first compound 0.6325 µM); 0.98 in test [5] (first compound 2 µM); 0.604 in test [2] (first compound 0.02 µM); 0.611 in test [2] (first compound 0.06325 µM); 0.615 in test [2] (first compound 0.2 µM); 0.583 in test [2] (first compound 0.6325 µM). In addition, the relative viability in test [2] (first compound 2 µM) is 0.586.

For HARA, the relative viability in test [1] (first compound 0.2 µM) stood at 0.297; in test [1] (first compound 0.6325 µM), 0.234; in test [1] (first compound 2 µM), 0.164; in test [3] (first compound 0.2 µM), 1.31; in test [3] (first compound 0.6325 µM), 1.1; in test [3] (first compound 2 µM) it was 1.05. Further, the relative viability in test [4] (first compound 0.2 µM) was found to be 1.07; in test [4] (first compound 0.6325 µM) it was 1.02; in test [4] (first compound 2 µM), 0.508; in test [5] (first compound 0.02 µM), 1.17; in test [5] (first compound 0.06325 µM) it was 1.07; in test [5] (first compound 0.2 µM) it was 0.937. Also, the relative viability in test [5] (first compound 0.6325 µM) came out at 1.07; in test [5] (first compound 2 µM), 1.05; in test [2] (first compound 0.02 µM), 0.542; in test [2] (first compound 0.06325 µM), 0.299; in test [2] (first compound 0.2 µM), 0.466; in test [2] (first compound 0.6325 µM), 0.525. Besides, the relative viability in test [2] (first compound 2 µM) amounted to 0.483.

For NCI-H1944, the relative viability was 0.313 in test [1] (first compound 0.2 µM); 0.321 in test [1] (first compound 0.6325 µM); 0.236 in test [1] (first compound 2 µM); 1.07 in test [4] (first compound 0.2 µM); 1.03 in test [4] (first compound 0.6325 µM); 0.933 in test [4] (first compound 2 µM). In addition, the relative viability in test [2] (first compound 0.02 µM) is 0.398; in test [2] (first compound 0.06325 µM) it was 0.433; in test [2] (first compound 0.2 µM) it was 0.408; in test [2] (first compound 0.6325 µM), 0.396; in test [2] (first compound 2 µM) it was 0.382.

In the case of BEN, the relative viability amounted to 0.486 in test [1] (first compound 0.2 µM); 0.479 in test [1] (first compound 0.6325 µM); 0.495 in test [1] (first compound 2 µM); 0.784 in test [3] (first compound 0.2 µM); 0.817 in test [3] (first compound 0.6325 µM); 0.679 in test [3] (first compound 2 µM). In addition, the relative viability came out at 0.713 in test [4] (first compound 0.2 µM); 0.837 in test [4] (first compound 0.6325 µM); 0.678 in test [4] (first compound 2 µM); 0.875 in test [5] (first compound 0.02 µM); 0.714 in test [5] (first compound 0.06325 µM); 0.83 in test [5] (first compound 0.2 µM). In addition, the relative viability in test [5] (first compound 0.6325 µM) came out at 0.919; in test [5] (first compound 2 µM), 0.861; in test [2] (first compound 0.02 µM), 0.247; in test [2] (first compound 0.06325 µM), 0.302; in test [2] (first compound 0.2 µM) it was 0.292; in test [2] (first compound 0.6325 µM), 0.285. Moreover, the relative viability in test [2] (first compound 2 µM) is 0.282.
